Measurements published in PMC10235067, “Increased renal elimination of endogenous and synthetic pyrimidine nucleosides in concentrative nucleoside transporter 1 deficient mice” (Nature Communications, 2023).
Several values for one entry are separate records, joined by “and”; a condition that tells them apart may be missing. Identical values can stand only once.

Experiments:
[1] = Gemcitabine plasma pharmacokinetics in Slc28a1+/+ and Slc28a1-/- mice; conditions: for C0: C0, dFdU in plasma; for MRT last: MRTlast
Procedure: To collect blood, a 5 mm lancet was used to apply pressure to the submandibular vein and release blood flow. For retro-orbital collection, mice were anesthetized with 3% isoflurane in oxygen, and the blood was collected directly into heparinized capillary tubes by applying slight pressure to the medial canthus of the eye. Cardiac puncture was performed as the final collection method by first euthanizing the mice in a CO2 chamber and immediately performing posterior cardiac puncture by inserting a 27 G needle with a 1 ml syringe attachment into the heart. Once blood collection was completed, gentle pressure was applied to the blood collection area using gauze to stop the bleeding. Thirty microliters of blood was collected into heparinized capillary tubes at each time point, transferred into prelabeled 0.5 ml microcentrifuge tubes containing THU (10 µg/ml; final concentration), and immediately processed and snap-frozen following procedures outlined in the “Gemcitabine plasma pharmacokinetics” methods section.
Gemcitabine and dFdU plasma concentrations were measured using a modified version of our previously published UHPLC–MS/MS method for nucleosides[74] […] Noncompartmental pharmacokinetic parameters (Cmax, Tmax, AUC, CL, T1/2, etc.) were calculated using WinNonlin 6.2 software (Pharsight; Mountain View, CA). […] The Cmax and Tmax were obtained from the concentration-time curve. The AUC was calculated according to the linear trapezoidal rule up to the last time point with a measurable concentration of the analyte of interest. Significant differences between Slc28a1^+/+ and Slc28a1^−/− mouse pharmacokinetic parameters (p < 0.05) were evaluated with an unpaired two-sided Student’s t-test.
The resulting supernatant was evaporated to dryness in a SpeedVac, and the remaining residue was reconstituted in mobile phase A for subsequent analysis. […] Subsequent processing was identical to that for the plasma and urine samples.
Briefly, the analysis was performed on an Imtakt Schzero SM C18 column, 2.1 × 100 mm, 3.0 µm particle size. The eluents used consisted of mobile phase A consisting of 50 mM ammonium formate:50 mM ammonium hydroxide (9:1, v/v) (pH = 8.6) and mobile phase B consisting of 50 mM ammonium formate:50 mM ammonium hydroxide (9:1, v/v):ACN (80:20, v/v) (pH = 8.6). […] The injection volume was 10 μL, and the autosampler temperature was set at 4 °C throughout the analysis.
The Waters Triple Quadrupole Mass Spectrometer with an ESI source was operated in negative and positive ion mode at a spray voltage of 2.5 kV, capillary temperature of 150 °C, and vaporizer temperature of 250 °C. Compound optimization was performed manually using the MassLynx 4.1 Software AutoTune Wizard (Waters, Milford, MA) by infusion into the mass spectrometer using a T-connector. […] Analyze concentrations were determined and analyzed using MassLynx Mass Spectrometry Software (Waters; Milford, MA).

[2] = Gemcitabine urine pharmacokinetics (renal excretion) in Slc28a1+/+ and Slc28a1-/- mice; conditions: Figure 5 G, H, I, individual mice; for concentration at 5 min / concentration at 10 min / concentration at 15 min / concentration at 30 min / concentration at 60 min / concentration at 120 min / concentration at 240 min: mouse, urine, intravenous, 50 mg/kg, Cp (dFdU)
Procedure: THU was added to the mouse urine samples upon collection and frozen until analysis. […] Five microliters of the diluted samples were transferred to a 96-well autosampler plate then 10 µL of internal standard mixture was added and mixed. […] The plate was then transferred to the 4 °C autosampler for analysis.
The chromatographic separation was performed on a Thermo Accucore aQ 2.6 µm, 100 ×2.1 mm column at 30 °C using a gradient with a 10 µL injection volume. The mobiles phases were 1 mM ammonium acetate in deionized water pH 6.8 and acetonitrile. The total run time was 5.5 min. […] The LC–MS/MS analysis was conducted on a Thermo Vanquish UHPLC with a TSQ Quantiva mass spectrometer equipped with an electrospray ionization source.

[3] = cited from earlier work
[4] = dFdU in plasma, WT mice, iv gemcitabine 50mg/kg, per mouse
[5] = female, Slc28a1-/- (CNT1 knockout; background strain not stated), mouse, plasma, intravenous, 50 mg/kg, Cp (dFdU), KO mice, single iv gemcitabine 50mg/kg
[6] = female, mouse, plasma, intravenous, 50 mg/kg, Cp (dFdU), WT mice, single iv gemcitabine 50mg/kg

In the case of `O=c1ccn([C@@H]2O[C@H](CO)[C@@H](O)C2(F)F)c(=O)[nH]1` [dFdU, 2′,2′-difluorodeoxyuridine], the MRTINF_pred [1, 4] is reported as 88.315 min and 25.0092 min and 14.2143 min and 30.2855 min, the MRTlast [1, 4] is reported as 7.307 min and 11.7511 min and 10.7753 min and 12.973 min and 10.8216 min and the Tlast [1, 4] is reported as 15 min and 30 min. For the same compound, the Tmax [1, 4] was 10 min and 5 min and 15 min, the Vss_obs [1, 4] was 108.907 L/kg and 105.643 L/kg and 83.3357 L/kg and 80.1423 L/kg and the Vss_pred [1, 4] was 108.137 L/kg and 105.015 L/kg and 82.9031 L/kg and 80.1342 L/kg. For the same compound, the Vz_obs [1, 4] was 108.979 L/kg and 99.2063 L/kg and 70.6936 L/kg and 76.9343 L/kg, the Vz_pred [1, 4] was 108.051 L/kg and 103.79 L/kg and 71.0811 L/kg and 76.7768 L/kg and the concentration at 120 min [1, 5] was 0 ng/mL. The concentration at 240 min [1, 5] was 0 ng/mL, the concentration at 5 min ([1]; female, mouse, plasma, intravenous, 50 mg/kg, Cp (dFdU), KO mice, single iv gemcitabine 50mg/kg, 5 min) was 400 ng/mL and the concentration at 60 min ([1]; female, mouse, plasma, intravenous, 50 mg/kg, Cp (dFdU), KO mice, single iv gemcitabine 50mg/kg) was 0 ng/mL. It also gave a concentration at 60 min [1, 6] of 0 ng/mL, a concentration at 120 min [1, 6] of 0 ng/mL and a concentration at 240 min [1, 6] of 0 ng/mL. The AUC(0-inf) ([1]; female, mouse, plasma, iv, 50 mg/kg, AUCINF_obs, dFdU in plasma, KO mice, iv gemcitabine 50mg/kg, per mouse) was 121 ng·h/mL, the AUC(0-inf) ([1]; female, mouse, plasma, iv, 50 mg/kg, AUCINF_pred, dFdU in plasma, KO mice, iv gemcitabine 50mg/kg, per mouse) was 121 ng·h/mL and the C0 ([1]; female, mouse, plasma, iv, 50 mg/kg, KO mice, iv gemcitabine 50mg/kg, per mouse) was 408 ng/mL. The C0 ([1]; female, mouse, plasma, iv, 50 mg/kg, WT mice, iv gemcitabine 50mg/kg, per mouse) was 445 ng/mL, the Cmax ([1]; female, mouse, plasma, iv, 50 mg/kg, Slc28a1+/+ mice, plasma, single i.v. dFdC 50 mg/kg) was 453 ± 7.35 ng/mL and the Cmax ([1]; female, mouse, plasma, iv, 50 mg/kg, Slc28a1-/- mice, single i.v. dFdC 50 mg/kg) was 386 ± 8.42 ng/mL. For the same compound, the k el ([1]; female, mouse, plasma, iv, 50 mg/kg, Lambda_z, dFdU in plasma, KO mice, iv gemcitabine 50mg/kg, per mouse) was 0.00206 s⁻¹, the MRT inf ([1]; female, mouse, plasma, iv, 50 mg/kg, MRTINF_obs, dFdU in plasma, KO mice, iv gemcitabine 50mg/kg, per mouse) was 10.1 min and the MRT inf ([1]; female, mouse, plasma, iv, 50 mg/kg, MRTINF_pred, dFdU in plasma, KO mice, iv gemcitabine 50mg/kg, per mouse) was 10.1 min. The MRT last ([1]; female, mouse, plasma, iv, 50 mg/kg, dFdU in plasma, KO mice, iv gemcitabine 50mg/kg, per mouse) was 9.07 min, the MRT last ([1]; female, mouse, plasma, iv, 50 mg/kg, dFdU in plasma, WT mice, iv gemcitabine 50mg/kg, per mouse) was 8.1 min and the Tmax ([1]; female, mouse, plasma, iv, 50 mg/kg, Tmax, Slc28a1+/+ mice, plasma, single i.v. dFdC 50 mg/kg) was 240 min. The Tmax ([1]; female, mouse, plasma, iv, 50 mg/kg, Tmax, Slc28a1-/- mice, single i.v. dFdC 50 mg/kg) was 240 min, the “Cp (dFdU)” value ([1]; plasma, KO mice, single iv gemcitabine 50mg/kg, 5 min) was 397.109 ng/mL and 353.736 ng/mL and 215.606 ng/mL and 287.027 ng/mL and 238.121 ng/mL and the “Cp (dFdU)” value ([2]; KO mice, 5 Minutes) was 317.288 ng/mL and 341.288 ng/mL and 338.288 ng/mL and 263.288 ng/mL. For the same compound, the “Cp (dFdU)” value ([2]; KO mice, 10 Minutes) was 227.479 ng/mL and 269.479 ng/mL and 242.479 ng/mL and 273.479 ng/mL and 275.479 ng/mL, the “Cp (dFdU)” value ([2]; KO mice, 15 Minutes) was 331.541 ng/mL and 373.541 ng/mL and 346.541 ng/mL and 377.541 ng/mL and 379.541 ng/mL and the “Cp (dFdU)” value ([2]; KO mice, 30 Minutes) was 322.048 ng/mL and 364.048 ng/mL and 337.048 ng/mL and 368.048 ng/mL and 370.048 ng/mL. For the same compound, the “Cp (dFdU)” value ([2]; KO mice, 60 Minutes) was 338.37 ng/mL and 380.37 ng/mL and 353.37 ng/mL and 384.37 ng/mL and 386.37 ng/mL, the “Cp (dFdU)” value ([2]; KO mice, 120 Minutes) was 342.398 ng/mL and 384.398 ng/mL and 357.398 ng/mL and 388.398 ng/mL and 390.398 ng/mL and the “Cp (dFdU)” value ([2]; KO mice, 240 Minutes) was 359.089 ng/mL and 401.089 ng/mL and 374.089 ng/mL and 405.089 ng/mL and 407.089 ng/mL. The “Cp (dFdU)” value ([2]; WT mice, 5 Minutes) was 390.036 ng/mL and 363.036 ng/mL and 387.036 ng/mL and 384.036 ng/mL and 309.036 ng/mL, the “Cp (dFdU)” value ([2]; WT mice, 10 Minutes) was 317.618 ng/mL and 359.618 ng/mL and 332.618 ng/mL and 363.618 ng/mL and 365.618 ng/mL and the “Cp (dFdU)” value ([2]; WT mice, 15 Minutes) was 319.343 ng/mL and 361.343 ng/mL and 334.343 ng/mL and 365.343 ng/mL and 367.343 ng/mL. For the same compound, the “Cp (dFdU)” value ([2]; WT mice, 30 Minutes) was 316.265 ng/mL and 358.265 ng/mL and 331.265 ng/mL and 362.265 ng/mL and 364.265 ng/mL, the “Cp (dFdU)” value ([2]; WT mice, 60 Minutes) was 316.849 ng/mL and 358.849 ng/mL and 331.849 ng/mL and 362.849 ng/mL and 364.849 ng/mL and the “Cp (dFdU)” value ([2]; WT mice, 120 Minutes) was 320.376 ng/mL and 362.376 ng/mL and 335.376 ng/mL and 366.376 ng/mL and 368.376 ng/mL. The “Cp (dFdU)” value ([2]; WT mice, 240 Minutes) was 471.043 ng/mL and 459.043 ng/mL and 432.043 ng/mL and 463.043 ng/mL and 465.043 ng/mL, the concentration at 5 min ([2]; KO mice, 5 Minutes) was 344 ng/mL and the concentration at 10 min ([2]; KO mice, 10 Minutes) was 239 ng/mL. The concentration at 15 min ([2]; KO mice, 15 Minutes) was 344 ng/mL, the concentration at 30 min ([2]; KO mice, 30 Minutes) was 334 ng/mL and the concentration at 60 min ([2]; KO mice, 60 Minutes) was 350 ng/mL. For the same compound, the concentration at 120 min ([2]; KO mice, 120 Minutes) was 354 ng/mL, the concentration at 240 min ([2]; KO mice, 240 Minutes) was 371 ng/mL and the concentration at 5 min ([2]; WT mice, 5 Minutes) was 328 ng/mL. The concentration at 10 min ([2]; WT mice, 10 Minutes) was 330 ng/mL, the concentration at 15 min ([2]; WT mice, 15 Minutes) was 331 ng/mL and the concentration at 30 min ([2]; WT mice, 30 Minutes) was 328 ng/mL. For the same compound, the concentration at 60 min ([2]; WT mice, 60 Minutes) was 329 ng/mL, the concentration at 120 min ([2]; WT mice, 120 Minutes) was 332 ng/mL and the concentration at 240 min ([2]; WT mice, 240 Minutes) was 429 ng/mL. For the same compound, the half-life [3] was ~ 26 h.
